Data from ChEMBL document CHEMBL1201862, “PubChem BioAssay data set” (2004).
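Each compound was tested at five concentrations against cells in 96-well plates for 48 hours. GI50 = concentration required for 50% inhibition of growth.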 Calls of active or inactive are those of the source. No stated cut-off is given here; in the data, active = GI50 up to about 1.1 µM and inactive = higher.

Legend:
Assay in all cases: growth of human tumour cells (NCI), 48 h
[1] = system: EKVX
[2] = system: HL-60
[3] = system: HOP-62
[4] = system: HT-29
[5] = system: LOX IMVI
[6] = system: MCF7
[7] = system: MOLT-4
[8] = system: NCI-H23
[9] = system: NCI-H522
[10] = system: OVCAR-5
[11] = system: PC-3
[12] = system: SF-268
[13] = system: SF-295
[14] = system: SK-MEL-28
[15] = system: SK-MEL-2
[16] = system: SNB-19
[17] = system: SNB-75
[18] = system: T47D
[19] = system: UACC-257
[20] = system: UO-31

Compound	GI50 [1]	GI50 [2]	GI50 [3]	GI50 [4]	GI50 [5]	GI50 [6]	GI50 [7]	GI50 [8]	GI50 [9]	GI50 [10]	GI50 [11]	GI50 [12]	GI50 [13]	GI50 [14]	GI50 [15]	GI50 [16]	GI50 [17]	GI50 [18]	GI50 [19]	GI50 [20]
COC(=O)c1ccccc1CC(Cc1ccccc1)C(=O)OC (stereo not given)	45.9 µM (inactive)	18.5 µM (inactive)	> 100 µM (inactive)	55.5 µM (inactive)	58.9 µM (inactive)	82 µM (inactive)	27.4 µM (inactive)	46.6 µM (inactive)	50.6 µM (inactive)	62.7 µM (inactive)	47.1 µM (inactive)	20.3 µM (inactive)	> 100 µM (inactive)	> 100 µM (inactive)	36.8 µM (inactive)	68.4 µM (inactive)	20 µM (inactive)	> 10 µM (inactive)	72.1 µM (inactive)	39.1 µM (inactive)
c1ccc2c(c1)CC1c3[nH]c4ccccc4c3CCN21 (stereo not given)	> 10 µM (inactive)	> 10 µM (inactive)	> 10 µM (inactive)	> 10 µM (inactive)	> 10 µM (inactive)	> 10 µM (inactive)	> 10 µM (inactive)	> 10 µM (inactive)	> 10 µM (inactive)	> 10 µM (inactive)	> 10 µM (inactive)	> 10 µM (inactive)	> 10 µM (inactive)	> 10 µM (inactive)	> 10 µM (inactive)	> 10 µM (inactive)	> 10 µM (inactive)	> 10 µM (inactive)	> 10 µM (inactive)	> 10 µM (inactive)
CC[C@@H]1CC[C@@H]2[C@H](CC[C@]3(C)[C@@H](O)CC[C@@H]23)[C@H]1CO	> 100 µM (inactive)	23.3 µM (inactive)	> 100 µM (inactive)	39.3 µM (inactive)	> 100 µM (inactive)	> 100 µM (inactive)	50 µM (inactive)	> 100 µM (inactive)	44.6 µM (inactive)	> 100 µM (inactive)	76.4 µM (inactive)	> 100 µM (inactive)	77.3 µM (inactive)	> 100 µM (inactive)	> 100 µM (inactive)	> 100 µM (inactive)	75.9 µM (inactive)	70.5 µM (inactive)	> 100 µM (inactive)	> 100 µM (inactive)
Nc1nc(Cl)cc(NCC2(CO)CCC(Cc3ccccc3)C2)n1 (stereo not given)	8.71 µM (inactive)	2.69 µM (inactive)	32.7 µM (inactive)	19.1 µM (inactive)	8.59 µM (inactive)	11.2 µM (inactive)	3.74 µM (inactive)	2.87 µM (inactive)	10.1 µM (inactive)	33.3 µM (inactive)	26.7 µM (inactive)	30.1 µM (inactive)	10.1 µM (inactive)	37.5 µM (inactive)	23.6 µM (inactive)	33.5 µM (inactive)	33.6 µM (inactive)	6.5 µM (inactive)	2.78 µM (inactive)	38.3 µM (inactive)
O=P1(Cc2ccccc2)c2ccccc2-c2ccccc21	20.4 µM (inactive)	1.04 µM (active)	6.47 µM (inactive)	2.37 µM (inactive)	4.74 µM (inactive)	3.08 µM (inactive)	7.29 µM (inactive)	3.86 µM (inactive)	1.87 µM (inactive)	12.1 µM (inactive)	2.82 µM (inactive)	9.12 µM (inactive)	5.98 µM (inactive)	4.13 µM (inactive)	2.18 µM (inactive)	3.69 µM (inactive)	4.75 µM (inactive)	0.0658 µM (active)	1.86 µM (inactive)	20.6 µM (inactive)
c1cc2cc3c4c5c(cc6ccc7cc8cc9c%10c8c8c7c6c5c8c5c%10c(c1C9N1CCOCCOCCOCCOCCOCC1)c2c45)C3 (stereo not given)	> 100 µM (inactive)	> 100 µM (inactive)	> 100 µM (inactive)	> 100 µM (inactive)	> 100 µM (inactive)	> 100 µM (inactive)	> 100 µM (inactive)	> 100 µM (inactive)	> 100 µM (inactive)	> 100 µM (inactive)	> 100 µM (inactive)	> 100 µM (inactive)	> 100 µM (inactive)	> 100 µM (inactive)	> 100 µM (inactive)	> 100 µM (inactive)	> 100 µM (inactive)	> 100 µM (inactive)	> 100 µM (inactive)	> 100 µM (inactive)
COc1cccc(C2c3cc4c(cc3OC(NNS(=O)(=O)c3ccc(C)cc3)C2C)OCO4)c1O (stereo not given)	20.2 µM (inactive)	18 µM (inactive)	22.3 µM (inactive)	17.9 µM (inactive)	26.1 µM (inactive)	18.7 µM (inactive)	10.7 µM (inactive)	29.2 µM (inactive)	11.4 µM (inactive)	52.4 µM (inactive)	12.4 µM (inactive)	41.9 µM (inactive)	20.8 µM (inactive)	25.5 µM (inactive)	17.4 µM (inactive)	28.3 µM (inactive)	11.2 µM (inactive)	18.2 µM (inactive)	19.7 µM (inactive)	18.5 µM (inactive)
